The source of these data is PMC4995014, “Identification of ABC Transporter Interaction of a Novel Cyanoquinoline Radiotracer and Implications for Tumour Imaging by Positron Emission Tomography” (PLoS ONE, 2016).

One assay concerns MCF7 cells. As to the kind of experiment: SRB cell viability assay in MCF7 cells. The conditions noted are these: Homo sapiens, 72 h. In kind it is cell-based. Here is the method: (§1) Cell viability by the sulforhodamine B (SRB) assay was used to assess cell growth and cytotoxicity of test compounds [29]. Cells were seeded at densities of 3,500 to 5,000 cells per well in 96 well plates overnight and pre-treated for 1 h with ABC transporter modulators: 10 μM fumitremorgin C (FTC; in MCF7MX and MCF7 cells), or 0.3 μM of zosuquidar (in 3T3 and 3T3-MDR1). Cells were then treated with test compounds for 72 h, at 37°C. After drug treatment, cells were fixed by addition of 50% trichloroacetic acid (TCA), and the plates washed and dried to allow staining with 0.4% solution of sulforhodamine B (Sigma) in 1% acetic acid for 30 minutes. Excess dye was removed upon washing with 1% acetic acid. Plates were dried and bound protein was solubilised upon addition of 150 μL of 10 mM Tris base buffer. Absorbance was measured at 540 nm using Thermo Multiskan-Ex plate reader. Cell viability versus compound concentration curves were plotted as a percentage of control cells. The concentration of drug that gave 50% inhibition in cell growth (GI50) was extrapolated from these curves using the sigmoid curve fit with variable slope in Prism (GraphPad Prism version 5.01, GraphPad Software, San Diego California USA). Three to six replicate wells were used for each drug concentration and experiments were carried out on three separate occasions for each compound.

The subject of another assay is MCF7MX cells. As to the kind of experiment: SRB cell viability assay in MCF7MX cells (ABCG2 overexpressing). The note with it: for GI50: Homo sapiens, MCF7/MX, 72 h, SRB. In kind it is cell-based, human. The protocol: as §1
In the next assay the test system is 3T3 cells. The assay is described as follows: SRB cell viability assay in 3T3 cells. In kind it is cell-based. The note with it: Mus musculus, NIH3T3, 72 h. Here is the method:
as §1

Assay [1] deals with T1, EGFR Del E746-A750/T790M (PC9ER cells) (Homo sapiens, UniProt P00533, DEL746-750/T790M).
T1 construct: endogenous in cells; host or cells: PC9ER (Dr Olivier Pardo, Imperial College London)
The assay is described as follows: Inhibition of EGFR autophosphorylation (p-EGFR Y1068, western blot) in PC9ER cells. In kind it is cell-based. The protocol:
(§2) Affinity of the cyanoquinolines for EGFR was established by measuring their inhibition of EGFR autophosphorylation via western blot. Cells were seeded in 6 well plates and following 24 h of growth, were subject to overnight serum starvation. The cells were then treated with increasing concentrations of cyanoquinolines prepared in serum free growth media from a DMSO stock (final DMSO concentration < 1%) for 3 h at 37°C, and stimulated for receptor autophosphorylation by addition of 100 ng/mL of EGF during the last 15 minutes of drug incubation. After 3 h the cells were placed on ice, media removed and then the cells were washed two times with ice cold phosphate buffered saline (PBS). Lysates were analysed by western blot to measure changes to p-EGFR Y1068.
Cells were collected into a microcentrifuge tube and sonicated for 30 seconds on ice. Cellular protein levels were assessed using a bicinchoninic acid (BCA) protein assay kit according to the manufacturer’s instructions (Thermo scientific). […] Samples were transferred to polyvinylidene difluoride (PVDF) membrane using Trans-Blot Turbo system BIO-RAD (Hercules, California, USA). […] The membranes were then incubated overnight with primary antibody prepared in 1% milk or 1% BSA in TBST. […] Membranes were washed a further three times for 10 minutes with TBST. Blots were visualised using chemoluminescence (ECL, GE Healthcare, Little Chalfont, UK) and developed on Amersham Hyperfilm ECL (GE Healthcare). β-Actin was used as a loading control.
Background: Immunoblotting shows a protein as a band on a membrane.

Assay [2] has as its target T2, EGFR Del E746-A750 (H1650 cells) (Homo sapiens, UniProt P00533, DEL746-750).
T2 construct: endogenous in cells; host or cells: H1650 (ATCC)
The assay is described as follows: Inhibition of EGFR autophosphorylation (p-EGFR Y1068, western blot) in H1650 cells. In kind it is cell-based. The note with it: 3 h incubation, EGF stimulated. Here is the method:
as §2
(§3) Cell lysates were prepared by addition of radioimmunoprecipitation assay (RIPA) buffer (50mM Tris-HCl pH 7.2, 150mM NaCl, 1% NP40, 1% sodium deoxycholate, 0.1% sodium dodecyl sulfate) supplemented with 1 x protease and phosphatase inhibitor cocktail (1mM 4-(2-Aminoethyl)benzenesulfonylfluoride hydrochloride, 800 nM aprotinin, 50 μM bestatin, 15 μM E-64, 5μM EDTA, 20 μM leupeptin, 10 μM pepstatin A; Thermo scientific, Waltham, Massachusetts, USA). […] Cellular protein levels were assessed using a bicinchoninic acid (BCA) protein assay kit according to the manufacturer’s instructions (Thermo scientific). […]

The target in assay [3] is T3, wildtype EGFR (A549 cells) (Homo sapiens, UniProt P00533).
T3 construct: host or cells: A549
The assay is described as follows: Inhibition of EGFR autophosphorylation (p-EGFR Y1068, western blot) in A549 cells. In kind it is cell-based. The conditions noted are these: 3 h incubation, EGF stimulated. The protocol:
as §2, §3

The subject of the next assay is EGFR. Set-up: method as in PMID 20797871, PMID 24307532. The note with it: cell-free; read-out: IC50 for inhibition of cell-free EGFR phosphorylation; cited from earlier work.
Setting [4] is: 1 h pre-treatment with 10 μM FTC.

T1 sequence (P00533 with tags, fused parts or gaps DEL746-750/T790M): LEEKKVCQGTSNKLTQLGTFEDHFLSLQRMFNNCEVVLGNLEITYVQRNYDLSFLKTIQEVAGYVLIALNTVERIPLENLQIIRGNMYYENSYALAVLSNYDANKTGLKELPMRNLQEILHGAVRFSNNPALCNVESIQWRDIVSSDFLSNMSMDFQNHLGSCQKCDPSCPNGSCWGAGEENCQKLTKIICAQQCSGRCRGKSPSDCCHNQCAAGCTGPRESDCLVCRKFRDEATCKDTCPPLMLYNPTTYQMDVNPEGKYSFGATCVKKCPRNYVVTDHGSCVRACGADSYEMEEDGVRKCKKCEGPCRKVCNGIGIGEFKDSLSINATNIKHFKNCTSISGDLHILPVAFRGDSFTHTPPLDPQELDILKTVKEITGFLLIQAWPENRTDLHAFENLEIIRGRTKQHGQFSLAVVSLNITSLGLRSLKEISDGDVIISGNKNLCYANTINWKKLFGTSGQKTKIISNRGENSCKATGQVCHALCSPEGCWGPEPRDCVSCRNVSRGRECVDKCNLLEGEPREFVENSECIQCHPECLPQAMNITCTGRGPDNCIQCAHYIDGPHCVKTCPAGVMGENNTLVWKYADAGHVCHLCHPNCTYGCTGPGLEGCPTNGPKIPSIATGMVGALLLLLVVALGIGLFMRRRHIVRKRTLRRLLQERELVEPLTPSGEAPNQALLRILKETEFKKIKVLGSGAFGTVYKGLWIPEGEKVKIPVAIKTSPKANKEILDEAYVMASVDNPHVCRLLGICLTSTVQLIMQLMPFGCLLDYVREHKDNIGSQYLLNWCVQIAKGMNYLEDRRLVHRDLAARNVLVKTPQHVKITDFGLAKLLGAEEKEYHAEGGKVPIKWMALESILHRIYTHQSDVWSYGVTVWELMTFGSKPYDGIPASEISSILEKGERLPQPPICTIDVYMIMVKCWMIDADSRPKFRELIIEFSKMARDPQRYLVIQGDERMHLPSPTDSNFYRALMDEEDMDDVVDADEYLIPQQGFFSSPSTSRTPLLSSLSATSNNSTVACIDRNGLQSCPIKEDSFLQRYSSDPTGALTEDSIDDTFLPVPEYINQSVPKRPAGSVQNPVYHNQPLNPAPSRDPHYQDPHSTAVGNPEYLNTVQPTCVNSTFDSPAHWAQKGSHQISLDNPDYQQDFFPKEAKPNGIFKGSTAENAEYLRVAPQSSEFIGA
T3 sequence (P00533 25-1210): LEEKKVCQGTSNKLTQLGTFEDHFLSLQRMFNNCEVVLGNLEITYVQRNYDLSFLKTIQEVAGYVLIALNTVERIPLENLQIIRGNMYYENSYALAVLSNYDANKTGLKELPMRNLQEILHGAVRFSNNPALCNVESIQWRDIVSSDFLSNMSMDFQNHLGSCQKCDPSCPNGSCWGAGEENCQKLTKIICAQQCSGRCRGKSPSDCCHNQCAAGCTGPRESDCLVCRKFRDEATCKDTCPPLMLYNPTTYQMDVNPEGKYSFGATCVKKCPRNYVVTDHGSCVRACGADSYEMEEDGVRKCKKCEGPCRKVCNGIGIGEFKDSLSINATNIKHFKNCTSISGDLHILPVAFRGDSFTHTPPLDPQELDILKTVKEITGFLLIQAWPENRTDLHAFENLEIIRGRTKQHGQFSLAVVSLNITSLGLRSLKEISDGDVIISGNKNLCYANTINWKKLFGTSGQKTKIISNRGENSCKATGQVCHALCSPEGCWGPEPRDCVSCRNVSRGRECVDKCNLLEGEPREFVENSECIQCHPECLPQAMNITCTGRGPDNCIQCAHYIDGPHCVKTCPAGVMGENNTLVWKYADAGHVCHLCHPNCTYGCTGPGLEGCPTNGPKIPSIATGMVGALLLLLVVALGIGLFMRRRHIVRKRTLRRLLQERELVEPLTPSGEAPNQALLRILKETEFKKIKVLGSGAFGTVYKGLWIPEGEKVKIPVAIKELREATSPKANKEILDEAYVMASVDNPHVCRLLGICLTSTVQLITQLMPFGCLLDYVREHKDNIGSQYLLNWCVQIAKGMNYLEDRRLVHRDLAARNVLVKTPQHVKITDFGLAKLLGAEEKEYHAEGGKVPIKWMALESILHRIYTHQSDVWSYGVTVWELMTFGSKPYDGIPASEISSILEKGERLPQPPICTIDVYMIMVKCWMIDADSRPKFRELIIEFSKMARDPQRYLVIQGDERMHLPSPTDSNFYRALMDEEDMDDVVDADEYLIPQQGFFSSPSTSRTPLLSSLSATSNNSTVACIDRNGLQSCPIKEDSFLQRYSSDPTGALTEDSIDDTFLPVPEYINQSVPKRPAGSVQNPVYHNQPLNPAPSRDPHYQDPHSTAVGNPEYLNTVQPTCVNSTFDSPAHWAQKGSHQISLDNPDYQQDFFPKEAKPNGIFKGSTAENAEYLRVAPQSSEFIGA
T2 sequence (P00533 with tags, fused parts or gaps DEL746-750): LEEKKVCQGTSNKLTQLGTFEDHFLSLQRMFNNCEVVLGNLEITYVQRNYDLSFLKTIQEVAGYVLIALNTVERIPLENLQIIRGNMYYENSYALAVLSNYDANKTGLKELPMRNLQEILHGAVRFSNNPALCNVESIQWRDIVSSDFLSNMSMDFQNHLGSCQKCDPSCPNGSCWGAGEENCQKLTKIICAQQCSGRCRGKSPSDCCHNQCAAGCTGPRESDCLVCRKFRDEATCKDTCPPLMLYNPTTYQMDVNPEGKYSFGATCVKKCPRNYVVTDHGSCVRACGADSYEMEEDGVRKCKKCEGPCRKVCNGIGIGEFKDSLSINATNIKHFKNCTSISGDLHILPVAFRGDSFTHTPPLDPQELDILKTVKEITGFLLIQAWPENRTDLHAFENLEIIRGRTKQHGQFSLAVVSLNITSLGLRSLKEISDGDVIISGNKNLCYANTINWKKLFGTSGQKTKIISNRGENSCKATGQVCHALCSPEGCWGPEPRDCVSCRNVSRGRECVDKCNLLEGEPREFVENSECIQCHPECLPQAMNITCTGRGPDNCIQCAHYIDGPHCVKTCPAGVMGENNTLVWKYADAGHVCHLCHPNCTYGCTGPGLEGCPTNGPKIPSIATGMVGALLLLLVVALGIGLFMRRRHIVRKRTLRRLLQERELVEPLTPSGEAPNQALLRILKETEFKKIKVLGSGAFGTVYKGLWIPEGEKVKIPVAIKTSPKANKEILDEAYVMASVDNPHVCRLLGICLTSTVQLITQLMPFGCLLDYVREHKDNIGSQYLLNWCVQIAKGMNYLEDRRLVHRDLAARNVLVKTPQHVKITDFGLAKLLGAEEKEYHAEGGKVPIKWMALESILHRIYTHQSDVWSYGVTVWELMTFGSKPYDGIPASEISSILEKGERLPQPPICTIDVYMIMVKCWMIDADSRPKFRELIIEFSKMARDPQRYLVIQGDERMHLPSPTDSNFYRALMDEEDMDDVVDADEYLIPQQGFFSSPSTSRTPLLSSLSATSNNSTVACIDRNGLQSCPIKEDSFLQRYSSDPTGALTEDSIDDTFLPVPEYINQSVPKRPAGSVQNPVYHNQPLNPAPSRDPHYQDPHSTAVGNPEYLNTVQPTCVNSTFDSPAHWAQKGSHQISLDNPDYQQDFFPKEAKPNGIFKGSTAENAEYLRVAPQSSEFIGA

As a reminder, the GI50 is the concentration giving 50% growth inhibition. One may read the IC50 as the concentration that inhibits the measured activity by half. Take `CCOc1cc2ncc(C#N)c(Nc3ccc(F)c(Cl)c3)c2cc1NC(=O)/C=C/CNCc1cn(CCF)nn1` [FED6, (2E)-N-{4-[(3-chloro-4-fluorophenyl)amino]-3-cyano-7-ethoxyquinolin-6-yl}-4-({[1-(2-fluoroethyl)-1H-1,2,3-triazol-4-yl]methyl}amino)-but-2-enamide]: the GI50 is 12.3 ± 7.1 µM with MCF7 cells (setting [4]); 12 ± 6.93 µM in the assay on MCF7 cells (without FTC); 37.9 ± 21.9 µM in the assay on MCF7MX cells (setting [4]); 75.9 ± 43.8 µM in the assay on MCF7MX cells (without FTC); 7.8 ± 0.7 µM in the assay with 3T3 cells (pre-treatment with 0.3 μM zosuquidar); 10.7 ± 1 µM with 3T3 cells (without zosuquidar). In addition, the “fold increase in GI50 in the ABCG2 overexpressing cell line” value in the assay on MCF7MX cells (GI50 MCF7MX over GI50 MCF7, without FTC) came to 6.3 fold. For the same molecule, the IC50 in assay [1] (3 h incubation, EGF stimulated) is 0.045 µM; in assay [2], 0.04 µM; in assay [3], 0.7 µM; in the assay with EGFR, 0.0018 µM. In addition, the “fold higher IC50 (p-EGFR) in PC9ER compared to PC9” value in assay [1] (PC9ER versus isogenic PC9) amounted to 2 fold.
